Data: patent publication US20070128217A1 (priority 2003, published 2007)

Tests used:
[1] = system: antibodies in sera from SARS patients (sera 1a, 1b, 2, 6, 37, 62, London, SARS-yellow, SARS-green); assay type: binding, human; set-up: Binding of serum 6 to linear peptides of protein X1 of SARS-CoV Urbani / Binding of serum 37 to linear peptides of protein X1 of SARS-CoV Urbani / Binding of serum 6 to looped/cyclic peptide (PEPSCAN-ELISA) / Binding of serum 37 to looped/cyclic peptide (PEPSCAN-ELISA) / Binding of serum 37 to looped/cyclic peptides of protein X1 of SARS-CoV Urbani / Binding of serum 6 to linear peptides of protein X2 / Binding of serum 37 to linear peptides of protein X2 / Binding of serum 37 to looped/cyclic peptides of protein X2 of SARS-CoV Urbani / Binding of serum 6 to linear peptides of protein M of SARS-CoV Urbani / Binding of serum 37 to linear peptides of protein M of SARS-CoV Urbani / Binding of serum 6 to looped/cyclic peptides of protein M of SARS-CoV Urbani / Binding of serum 37 to looped/cyclic peptides of protein M of SARS-CoV Urbani / Binding of serum 6 to linear peptides of protein X3 of SARS-CoV Urbani / Binding of serum 37 to linear peptides of protein X3 of SARS-CoV Urbani / Binding of serum 37 to looped/cyclic peptides of protein X3 of SARS-CoV Urbani / Binding of serum 6 to linear peptides of protein X4 of SARS-CoV Urbani / Binding of serum 37 to linear peptides of protein X4 of SARS-CoV Urbani / Binding of serum 37 to looped/cyclic peptides of protein X4 of SARS-CoV Urbani / Binding of serum 6 to linear peptides of protein X5 of SARS-CoV Urbani / Binding of serum 37 to linear peptides of protein X5 of SARS-CoV Urbani / Binding of serum 37 to looped/cyclic peptides of protein X5 of SARS-CoV Urbani / Binding of serum 6 to linear peptides of protein N of SARS-CoV Urbani / Binding of serum 37 to linear peptides of protein N of SARS-CoV Urbani / Binding of serum 6 to linear peptide (PEPSCAN-ELISA) / Binding of serum 1a to looped/cyclic peptides of protein N of SARS-CoV Urbani / Binding of serum 1b to looped/cyclic peptides of protein N of SARS-CoV Urbani / Binding of serum 2 to looped/cyclic peptides of protein N of SARS-CoV Urbani / Binding of serum 6 to looped/cyclic peptides of protein N of SARS-CoV Urbani / Binding of serum 37 to looped/cyclic peptides of protein N of SARS-CoV Urbani / Binding of serum 62 to looped/cyclic peptides of protein N of SARS-CoV Urbani / Binding of serum London to looped/cyclic peptides of protein N of SARS-CoV Urbani / Binding of serum SARS-green to looped/cyclic peptides of protein N of SARS-CoV Urbani: unit not given here
[2] = system: control sera (pooled serum of ten healthy LUMC hospital workers; commercial negative donor pooled serum from the Dutch bloodbank); assay type: binding, human; set-up: Binding of Control serum LUMC to linear peptides / Binding of Control serum Blood-bank to linear peptides / Binding of Control serum LUMC to looped peptides / Binding of Control Serum Blood-Bank to Looped peptides / Binding of Control serum LUMC to linear peptides of the protein M of SARS-CoV Urbani / Binding of Control serum Blood-bank to linear peptides of the protein M of SARS-CoV Urbani / Binding of Control serum LUMC to looped peptides of the protein M of SARS-CoV Urbani / Binding of Control Serum Blood-Bank to Looped peptides of the protein M of SARS-CoV Urbani: unit not given here
[3] = system: rabbit serum obtained by immunizing a rabbit with the SARS-CoV strain Frankfurt 1; assay type: binding; set-up: Binding of a rabbit serum to linear peptides / Binding of a rabbit serum to looped peptides / Rabbit serum linear peptides / Rabbit serum looped peptides / Binding of a rabbit serum to linear peptides of protein N of SARS-CoV Urbani (Rabbit serum linear peptides) / Binding of a rabbit serum to looped/cyclic peptides of protein N of SARS-CoV Urbani (Rabbit serum looped peptides): unit not given here

## NSVTDTIVVTEGDGI
[1]
  Binding of serum 1a to linear peptides of protein X1 of SARS-CoV Urbani: 0.6
  Binding of serum 1a to looped/cyclic peptides of protein X1 of SARS-CoV Urbani: 0.4
  Binding of serum 1b to linear peptides of protein X1 of SARS-CoV Urbani: 0.5
  Binding of serum 1b to looped/cyclic peptides of protein X1 of SARS-CoV Urbani: 0.3
  Binding of serum 2 to linear peptides of protein X1 of SARS-CoV Urbani: 0.4
  Binding of serum 2 to looped/cyclic peptides of protein X1 of SARS-CoV Urbani: 0.2
  Binding of serum 6 to linear peptides of protein X1 of SARS-CoV Urbani: 0.4
  Binding of serum 6 to looped/cyclic peptides of protein X1 of SARS-CoV Urbani: 0.2
  Binding of serum 37 to linear peptides of protein X1 of SARS-CoV Urbani: 0.5
  Binding of serum 37 to looped/cyclic peptides of protein X1 of SARS-CoV Urbani: 0.4
  Binding of serum 62 to linear peptides of protein X1 of SARS-CoV Urbani: 0.4
  Binding of serum 62 to looped/cyclic peptides of protein X1 of SARS-CoV Urbani: 0.4
  Binding of serum London to linear peptides of protein X1 of SARS-CoV Urbani: 0.2
  Binding of serum London to looped/cyclic peptides of protein X1 of SARS-CoV Urbani: 0.2
  Binding of serum SARS-green to linear peptides of protein X1 of SARS-CoV Urbani: 0.2
  Binding of serum SARS-green to looped/cyclic peptides of protein X1 of SARS-CoV Urbani: 0.3
  Binding of serum SARS-yellow to linear peptides of protein X1 of SARS-CoV Urbani: 0.6
  Binding of serum SARS-yellow to looped/cyclic peptides of protein X1 of SARS-CoV Urbani: 0.3
[2]
  Binding of Control Serum Blood-Bank to Looped peptides: 0.4
  Binding of Control serum Blood-bank to linear peptides: 0.3
  Binding of Control serum LUMC to linear peptides: 0.4
  Binding of Control serum LUMC to looped peptides: 0.5
[3]
  Binding of a rabbit serum to linear peptides: 0.1
  Binding of a rabbit serum to looped peptides: 0.5

## PKEITVATSRTLSYY
[1]
  Binding of serum 1a to linear peptides of protein M of SARS-CoV Urbani: 0.6
  Binding of serum 1a to looped/cyclic peptides of protein M of SARS-CoV Urbani: 0.6
  Binding of serum 1b to linear peptides of protein M of SARS-CoV Urbani: 0.4
  Binding of serum 1b to looped/cyclic peptides of protein M of SARS-CoV Urbani: 0.6
  Binding of serum 2 to linear peptides of protein M of SARS-CoV Urbani: 0.5
  Binding of serum 2 to looped/cyclic peptides of protein M of SARS-CoV Urbani: 0.6
  Binding of serum 6 to linear peptides of protein M of SARS-CoV Urbani: 0.2
  Binding of serum 6 to looped/cyclic peptides of protein M of SARS-CoV Urbani: 0.7
  Binding of serum 37 to linear peptides of protein M of SARS-CoV Urbani: 0.8
  Binding of serum 37 to looped/cyclic peptides of protein M of SARS-CoV Urbani: 0.6
  Binding of serum 62 to linear peptides of protein M of SARS-CoV Urbani: 0.7
  Binding of serum 62 to looped/cyclic peptides of protein M of SARS-CoV Urbani: 0.6
  Binding of serum London to linear peptides of protein M of SARS-CoV Urbani: 0.3
  Binding of serum London to looped/cyclic peptides of protein M of SARS-CoV Urbani: 0.2
  Binding of serum SARS-green to linear peptides of protein M of SARS-CoV Urbani: 0.1
  Binding of serum SARS-green to looped/cyclic peptides of protein M of SARS-CoV Urbani: 0.4
  Binding of serum SARS-yellow to linear peptides of protein M of SARS-CoV Urbani: 0.1
  Binding of serum SARS-yellow to looped/cyclic peptides of protein M of SARS-CoV Urbani: 0.4
[2]
  Binding of Control Serum Blood-Bank to Looped peptides of the protein M of SARS-CoV Urbani: 0.6
  Binding of Control serum Blood-bank to linear peptides of the protein M of SARS-CoV Urbani: 0.5
  Binding of Control serum LUMC to linear peptides of the protein M of SARS-CoV Urbani: 0.3
  Binding of Control serum LUMC to looped peptides of the protein M of SARS-CoV Urbani: 0.6
[3]
  Rabbit serum linear peptides: 0.5
  Rabbit serum looped peptides: 0.2

## LFMRFFTLGSITAQP
[1]
  Binding of serum 1a to linear peptides of protein X1 of SARS-CoV Urbani: 0.8
  Binding of serum 1a to looped/cyclic peptide (PEPSCAN-ELISA): 0.5
  Binding of serum 1b to linear peptides of protein X1 of SARS-CoV Urbani: 0.7
  Binding of serum 1b to looped/cyclic peptide (PEPSCAN-ELISA): 0.3
  Binding of serum 2 to linear peptides of protein X1 of SARS-CoV Urbani: 0.6
  Binding of serum 2 to looped/cyclic peptide (PEPSCAN-ELISA): 0.4
  Binding of serum 6 to linear peptides of protein X1 of SARS-CoV Urbani: 0.5
  Binding of serum 6 to looped/cyclic peptide (PEPSCAN-ELISA): 0.3
  Binding of serum 37 to linear peptides of protein X1 of SARS-CoV Urbani: 0.6
  Binding of serum 37 to looped/cyclic peptide (PEPSCAN-ELISA): 0.5
  Binding of serum 62 to linear peptides of protein X1 of SARS-CoV Urbani: 0.6
  Binding of serum 62 to looped/cyclic peptide (PEPSCAN-ELISA): 0.5
  Binding of serum London to linear peptides of protein X1 of SARS-CoV Urbani: 0.3
  Binding of serum London to looped/cyclic peptide (PEPSCAN-ELISA): 0.2
  Binding of serum SARS-green to linear peptides of protein X1 of SARS-CoV Urbani: 0.2
  Binding of serum SARS-green to looped/cyclic peptide (PEPSCAN-ELISA): 0.3
  Binding of serum SARS-yellow to linear peptides of protein X1 of SARS-CoV Urbani: 0.6
  Binding of serum SARS-yellow to looped/cyclic peptide (PEPSCAN-ELISA): 0.4
[2]
  Binding of Control Serum Blood-Bank to Looped peptides: 0.7
  Binding of Control serum Blood-bank to linear peptides: 0.7
  Binding of Control serum LUMC to linear peptides: 0.6
  Binding of Control serum LUMC to looped peptides: 0.5
[3]
  Binding of a rabbit serum to linear peptides: 0.5
  Binding of a rabbit serum to looped peptides: 0.4

## TAWLCALGKVLPFHR
[1]
  Binding of serum 1a to linear peptides of protein X5 of SARS-CoV Urbani: 0.7
  Binding of serum 1a to looped/cyclic peptides of protein X5 of SARS-CoV Urbani: 0.4
  Binding of serum 1b to linear peptides of protein X5 of SARS-CoV Urbani: 0.5
  Binding of serum 1b to looped/cyclic peptides of protein X5 of SARS-CoV Urbani: 0.3
  Binding of serum 2 to linear peptides of protein X5 of SARS-CoV Urbani: 0.6
  Binding of serum 2 to looped/cyclic peptides of protein X5 of SARS-CoV Urbani: 0.6
  Binding of serum 6 to linear peptides of protein X5 of SARS-CoV Urbani: 0.5
  Binding of serum 6 to looped/cyclic peptides of protein X5 of SARS-CoV Urbani: 0.9
  Binding of serum 37 to linear peptides of protein X5 of SARS-CoV Urbani: 0.7
  Binding of serum 37 to looped/cyclic peptides of protein X5 of SARS-CoV Urbani: 0.4
  Binding of serum 62 to linear peptides of protein X5 of SARS-CoV Urbani: 0.7
  Binding of serum 62 to looped/cyclic peptides of protein X5 of SARS-CoV Urbani: 0.7
  Binding of serum London to linear peptides of protein X5 of SARS-CoV Urbani: 0.6
  Binding of serum London to looped/cyclic peptides of protein X5 of SARS-CoV Urbani: 1.3
  Binding of serum SARS-green to linear peptides of protein X5 of SARS-CoV Urbani: 0.7
  Binding of serum SARS-green to looped/cyclic peptides of protein X5 of SARS-CoV Urbani: 0.2
  Binding of serum SARS-yellow to linear peptides of protein X5 of SARS-CoV Urbani: 0.3
  Binding of serum SARS-yellow to looped/cyclic peptides of protein X5 of SARS-CoV Urbani: 0.8
[2]
  Binding of Control Serum Blood-Bank to Looped peptides: 0.4
  Binding of Control serum Blood-bank to linear peptides: 0.7
  Binding of Control serum LUMC to linear peptides: 0.4
  Binding of Control serum LUMC to looped peptides: 0.6
[3]
  Rabbit serum linear peptides: 0.7
  Rabbit serum looped peptides: 0.8

## NILLNVPLRGTIVTR
[1]
  Binding of serum 1a to linear peptides of protein M of SARS-CoV Urbani: 0.7
  Binding of serum 1b to linear peptides of protein M of SARS-CoV Urbani: 0.5
  Binding of serum 2 to linear peptides of protein M of SARS-CoV Urbani: 0.8
  Binding of serum 6 to linear peptides of protein M of SARS-CoV Urbani: 0.4
  Binding of serum 37 to linear peptides of protein M of SARS-CoV Urbani: 0.6
  Binding of serum 62 to linear peptides of protein M of SARS-CoV Urbani: 0.7
  Binding of serum London to linear peptides of protein M of SARS-CoV Urbani: 0.4
  Binding of serum SARS-green to linear peptides of protein M of SARS-CoV Urbani: 0.3
  Binding of serum SARS-yellow to linear peptides of protein M of SARS-CoV Urbani: 0.1
  Recognition of the peptide by sera of SARS-CoV infected individuals, and form (linear, looped/cyclic) in which it is recognized: recognized in looped/cyclic form
[2]
  Binding of Control Serum Blood-Bank to Looped peptides of the protein M of SARS-CoV Urbani: 0.8
  Binding of Control serum Blood-bank to linear peptides of the protein M of SARS-CoV Urbani: 0.8
  Binding of Control serum LUMC to linear peptides of the protein M of SARS-CoV Urbani: 0.3
  Binding of Control serum LUMC to looped peptides of the protein M of SARS-CoV Urbani: 0.7
[3]
  Rabbit serum linear peptides: 0.5
  Rabbit serum looped peptides: 0.4
